Measured values taken from US20100136598A1, “NOVEL MESENCHYMAL PROGENITOR CELLS DERIVED FROM HUMAN BLASTOCYST-DERIVED STEM CELLS” (priority 2007, published 2010).
Where two headings read alike, the source gives them in different places.

Columns and labels:
hBS-MP cells [1] = system: hBS-MP cells
Method: hBS cells were dissociated into small cell aggregates and seeded into 96-well plates (Nunc, Kamstrupvej, Denmark) in 100 μl Test medium containing Knock Out DMEM supplemented with 20% Foetal bovine Serum (FBS), 1% penicillin-streptomycin, 1% Glutamax, 0.5 mmol/l β-mercaptoethanol and 1% non-essential amino acids (all Invitrogen). hBS-MP cells and hFF cells were dissociated into single cells and seeded into 96-well plates in 100 μl test medium.
After 24 hours the cytotoxicity test was started by adding 100 μl toxicity solution to the test wells that had twice the concentration as the required end concentration (day 0).

hBS cells = test: Cytotoxicity test in 96-well plates, 10 days (ATP content / Resazurin); settings: for Ratios between the IC50 values measured using the Resazurin assay: hBS cells (reference = 1), day 10
hBS-MP cells [2] = test: as above; settings: for Ratios between the IC50 values measured using the Resazurin assay: hBS-MP cells relative to hBS cells, day 10; for sensitivity of hBS cells and hBS-MP cells compared to hFF cells (comparison of IC50 values): hBS and hBS-MP cells versus hFF cells
hFF cells = test: as above; settings: for Ratios between the IC50 values measured using the Resazurin assay: hFF cells relative to hBS cells, day 10

Compound	sensitivity of hBS cells and hBS-MP cells compared to hFF cells (comparison of IC50 values) (hBS-MP cells [1])	Ratios between the IC50 values measured using the Resazurin assay (hBS cells)	Ratios between the IC50 values measured using the Resazurin assay (hBS-MP cells [2])	Ratios between the IC50 values measured using the Resazurin assay (hFF cells)	toxic reaction (hBS cells; hBS cells, data not shown)	toxic reaction (hBS-MP cells [2]; hBS-MP cells, data not shown)	toxic reaction (hFF cells; hFF cells, data not shown)	sensitivity of hBS cells and progenitor cells compared to hFF (dose-response curve) (hBS-MP cells [1])	sensitivity of hBS cells and hBS-MP cells compared to hFF cells (comparison of IC50 values) (hBS-MP cells [2])
O=c1[nH]cc(F)c(=O)[nH]1 [5-FU, 5-fluoro-uracil]	much more sensitive	1	3	7	–	–	–	–	–
O=C1NS(=O)(=O)c2ccccc21.[Na] [saccharin, sodium saccharin]	–	–	–	–	no toxic reaction	no toxic reaction	no toxic reaction	–	–
CC1=C(/C=C/C(C)=C/C=C/C(C)=C/C(=O)O)C(C)(C)CCC1 [ATRA, all-trans-retinoic acid]	–	1	1	2	–	–	–	higher sensitivity	much more sensitive
CC1=C(/C=C/C(C)=C/C=C/C(C)=C\C(=O)O)C(C)(C)CCC1 [13CRA, 13-cis-retinoic acid]	–	1	4	10	–	–	–	higher sensitivity	much more sensitive
